Results reported in ChEMBL document CHEMBL1201862, “PubChem BioAssay data set” (2004).
Active and inactive are the calls of the source.

How the values were obtained:
Type in all cases: functional
[1] = molecular target: Botulinum neurotoxin type F (Clostridium botulinum, UniProt P30996); assay: High-throughput multiplex microsphere dose response for inhibitors of toxin protease, specifically Botulinum neurotoxin light chain F protease, compounds from Cherry Pick 02.; details: read-out: EC50_MICROM
Sequence of Botulinum neurotoxin type F (P30996 1-436 limits assumed): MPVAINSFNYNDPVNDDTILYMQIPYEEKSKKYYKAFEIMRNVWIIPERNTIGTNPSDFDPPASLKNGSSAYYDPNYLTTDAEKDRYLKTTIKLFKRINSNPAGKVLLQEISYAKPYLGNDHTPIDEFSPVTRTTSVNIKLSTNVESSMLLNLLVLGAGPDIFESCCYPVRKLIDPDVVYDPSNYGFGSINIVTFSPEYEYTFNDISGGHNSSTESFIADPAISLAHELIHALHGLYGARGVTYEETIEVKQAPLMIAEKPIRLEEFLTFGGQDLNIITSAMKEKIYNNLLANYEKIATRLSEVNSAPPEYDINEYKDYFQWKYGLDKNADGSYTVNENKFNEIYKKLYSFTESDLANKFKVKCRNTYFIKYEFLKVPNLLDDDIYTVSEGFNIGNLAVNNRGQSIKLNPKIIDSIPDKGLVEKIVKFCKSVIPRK

[2] = molecular target: Arf-GAP with SH3 domain, ANK repeat and PH domain-containing protein 1 (Homo sapiens, UniProt Q9ULH1);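 note: biochemical fluorescence polarization dose–response screen measuring inhibition of ASAP1; ASAP1 GAP domain stimulating GTP hydrolysis by truncated human ARF1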
Sequence of Arf-GAP with SH3 domain, ANK repeat and PH domain-containing protein 1 (Q9ULH1 whole entry, the tested form may be a part): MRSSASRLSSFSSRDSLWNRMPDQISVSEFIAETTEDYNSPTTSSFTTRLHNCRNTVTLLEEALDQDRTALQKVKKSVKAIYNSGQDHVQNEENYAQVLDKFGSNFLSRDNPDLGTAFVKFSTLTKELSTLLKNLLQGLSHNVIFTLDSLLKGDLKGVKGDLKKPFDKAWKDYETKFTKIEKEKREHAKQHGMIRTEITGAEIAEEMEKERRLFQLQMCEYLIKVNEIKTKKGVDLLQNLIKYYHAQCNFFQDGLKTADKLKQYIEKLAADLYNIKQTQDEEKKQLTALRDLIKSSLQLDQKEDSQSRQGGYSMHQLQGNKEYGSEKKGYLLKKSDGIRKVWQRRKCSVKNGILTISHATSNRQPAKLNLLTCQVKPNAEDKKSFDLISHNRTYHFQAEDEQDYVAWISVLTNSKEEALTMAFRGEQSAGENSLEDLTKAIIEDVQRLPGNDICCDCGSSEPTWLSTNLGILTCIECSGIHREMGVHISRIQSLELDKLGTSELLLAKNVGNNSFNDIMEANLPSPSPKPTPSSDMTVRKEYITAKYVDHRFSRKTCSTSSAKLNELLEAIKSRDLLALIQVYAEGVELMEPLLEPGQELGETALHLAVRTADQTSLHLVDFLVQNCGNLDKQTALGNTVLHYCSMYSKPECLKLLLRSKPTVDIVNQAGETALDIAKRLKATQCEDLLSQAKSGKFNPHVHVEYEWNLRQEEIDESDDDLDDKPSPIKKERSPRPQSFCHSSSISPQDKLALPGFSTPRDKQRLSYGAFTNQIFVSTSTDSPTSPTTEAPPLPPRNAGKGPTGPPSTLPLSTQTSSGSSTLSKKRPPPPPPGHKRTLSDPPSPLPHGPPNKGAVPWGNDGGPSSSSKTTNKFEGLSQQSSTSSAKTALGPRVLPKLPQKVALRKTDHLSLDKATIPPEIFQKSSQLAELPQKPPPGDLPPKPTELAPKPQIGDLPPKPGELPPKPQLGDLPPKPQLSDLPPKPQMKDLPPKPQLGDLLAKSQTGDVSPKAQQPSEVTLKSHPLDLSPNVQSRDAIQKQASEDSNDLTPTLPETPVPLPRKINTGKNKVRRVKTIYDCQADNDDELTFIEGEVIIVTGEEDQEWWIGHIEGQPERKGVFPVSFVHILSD

[3] = molecular target: T1, Carboxy-terminal domain RNA polymerase II polypeptide A small phosphatase 1 (Homo sapiens, UniProt Q9GZU7); assay: inhibitors of CTDSP1, concentration-response testing, biochemical assay, absorbance-based, actives from ultra-high-throughput screening (AID 540297)
T1 sequence (Q9GZU7 whole entry): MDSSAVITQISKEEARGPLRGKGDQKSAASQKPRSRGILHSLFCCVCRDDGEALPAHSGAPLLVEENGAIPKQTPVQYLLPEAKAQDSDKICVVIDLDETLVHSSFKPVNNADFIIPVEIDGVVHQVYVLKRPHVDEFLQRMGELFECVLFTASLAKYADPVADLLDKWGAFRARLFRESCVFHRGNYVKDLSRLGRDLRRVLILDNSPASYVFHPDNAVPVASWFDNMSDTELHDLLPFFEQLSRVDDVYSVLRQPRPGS

[4] = molecular target: SWI/SNF-related matrix-associated actin-dependent regulator of chromatin subfamily A member 2 (Homo sapiens, UniProt P51531); assay: Luminescence-based cell-based high throughput dose response assay to identify activators of the function of SWI/SNF related, matrix associated, actin dependent regulator of chromatin, subfamily a, member 2 (SMARCA2, BRM).
Sequence of SWI/SNF-related matrix-associated actin-dependent regulator of chromatin subfamily A member 2 (P51531 whole entry): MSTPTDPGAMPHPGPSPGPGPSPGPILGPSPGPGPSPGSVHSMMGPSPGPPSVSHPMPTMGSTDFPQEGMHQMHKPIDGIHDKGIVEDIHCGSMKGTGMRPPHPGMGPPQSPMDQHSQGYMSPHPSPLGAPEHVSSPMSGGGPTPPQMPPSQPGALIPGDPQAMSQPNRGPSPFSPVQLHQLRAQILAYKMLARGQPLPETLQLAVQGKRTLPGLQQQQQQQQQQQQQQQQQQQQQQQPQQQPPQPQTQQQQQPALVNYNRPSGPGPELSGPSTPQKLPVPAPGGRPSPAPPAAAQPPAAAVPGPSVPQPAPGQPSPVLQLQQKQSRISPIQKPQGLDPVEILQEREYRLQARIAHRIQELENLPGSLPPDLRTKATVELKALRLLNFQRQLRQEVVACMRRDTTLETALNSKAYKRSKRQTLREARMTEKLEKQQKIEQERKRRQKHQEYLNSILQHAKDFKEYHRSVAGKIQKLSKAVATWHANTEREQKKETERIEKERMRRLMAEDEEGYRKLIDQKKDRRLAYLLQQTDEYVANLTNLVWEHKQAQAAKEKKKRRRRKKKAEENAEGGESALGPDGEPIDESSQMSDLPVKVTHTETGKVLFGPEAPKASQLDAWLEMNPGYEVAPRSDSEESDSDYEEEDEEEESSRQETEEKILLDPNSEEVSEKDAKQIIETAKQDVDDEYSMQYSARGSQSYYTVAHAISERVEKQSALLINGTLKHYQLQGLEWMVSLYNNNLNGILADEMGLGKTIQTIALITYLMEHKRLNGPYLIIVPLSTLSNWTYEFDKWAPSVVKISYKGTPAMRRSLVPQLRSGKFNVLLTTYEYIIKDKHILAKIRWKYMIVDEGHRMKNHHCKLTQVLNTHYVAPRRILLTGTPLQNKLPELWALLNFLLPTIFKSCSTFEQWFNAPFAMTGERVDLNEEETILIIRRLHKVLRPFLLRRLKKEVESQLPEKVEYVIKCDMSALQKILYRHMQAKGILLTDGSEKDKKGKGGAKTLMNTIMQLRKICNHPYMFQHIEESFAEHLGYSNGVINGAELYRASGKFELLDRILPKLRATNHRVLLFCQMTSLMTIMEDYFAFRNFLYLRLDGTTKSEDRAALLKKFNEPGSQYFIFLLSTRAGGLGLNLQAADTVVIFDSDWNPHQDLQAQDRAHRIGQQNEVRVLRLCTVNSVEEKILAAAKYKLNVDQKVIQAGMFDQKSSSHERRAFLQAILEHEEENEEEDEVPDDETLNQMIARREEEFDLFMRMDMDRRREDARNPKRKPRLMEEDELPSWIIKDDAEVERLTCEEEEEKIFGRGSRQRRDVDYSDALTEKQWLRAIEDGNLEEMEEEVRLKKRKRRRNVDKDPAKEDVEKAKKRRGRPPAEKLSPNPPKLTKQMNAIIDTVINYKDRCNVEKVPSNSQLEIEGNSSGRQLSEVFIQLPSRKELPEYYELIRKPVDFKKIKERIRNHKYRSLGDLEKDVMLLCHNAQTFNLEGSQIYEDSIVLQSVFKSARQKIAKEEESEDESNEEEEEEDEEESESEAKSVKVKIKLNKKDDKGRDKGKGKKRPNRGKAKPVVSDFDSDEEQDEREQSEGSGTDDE

[5] = Counterscreen for activators of the function of SWI/SNF related, matrix associated, actin dependent regulator of chromatin, subfamily a, member 2 (SMARCA2, BRM): Luminescence-based cell-based high throughput dose response assay to identify non-selective compounds using the VP16 reporter assay.

Question: Which EC50 [1] does the source give for `Cc1cc2cc(CNC(=O)c3ccc(S(=O)(=O)N4CCCCC4)cc3)ccc2[nH]1` here?
Answer: > 20 µM (inactive)

Question: For `COc1ccc2cc(C(=O)Nc3ccc(Cl)cc3)sc(=O)c2c1OC`, which IC50 [2] is on record?
Answer: 12.6 µM (inactive)

Question: And the IC50 [3]?
Answer: 3.51 µM (active)

Question: With `COc1ccc(-c2nc(C#N)c(NCC3CCCO3)o2)cc1` (stereo not given) as the molecule, how does the EC50 [4] read?
Answer: > 91.1 µM (inactive)

Question: What about the EC50 [5] of the same molecule?
Answer: > 91.1 µM (inactive)
